From ChEMBL document CHEMBL1201862, “PubChem BioAssay data set” (2004)
Activity calls are given as the source filed them.

Key:
[1] = test system: BJ; assay: growth inhibition of engineered Ras-driven BJ cells – cell-based, alamar blue fluorescence, cherrypicked samples, dose response (AID 2631); format: functional; conditions: Homo sapiens;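 further: confirmatory dose-response assay in RAS-dependent BJ fibroblasts engineered with TERT, LT and ST, with cytotoxicity read by fluorescence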
[2] = DRD fibroblast viability loss – cell-based, non-viral oncogenic, luminescence, dose response (AID 1934); format: functional; conditions: Homo sapiens
[3] = loss of viability in HepG2 cells – cell-based, CellTiter-Glo, cherry-picked, cytotoxicity control for Shn3 inhibitor project, dose response (AID 624134); format: functional
[4] = biological target: Sphingosine 1-phosphate receptor 4 (Homo sapiens, UniProt O95977); assay: Fluorescence dose response cell-based high throughput screening assay for antagonists of the Sphingosine 1-Phosphate Receptor 4 (S1P4). [Related pubchem assays: 1524 (Confirmation in triplicates.), 1510 (Primary screen.)]; format: functional
[5] = non-specific 3'UTR reporter inhibition in Clone20-Shn3RL – cell-based, Renilla luciferase, cherry-picked, counter-screen for Shn3 inhibitor project, dose response (AID 624133); format: functional
[6] = biological target: T1, Sentrin-specific protease 6 (Homo sapiens, UniProt Q9GZR1); assay: SAR Analysis of small molecule inhibitors of Sentrin-specific protease 6 (SENP6) using a Luminescent assay. [Related pubchem assays (depositor defined):AID2582, AID2599]; format: functional
T1 sequence (Q9GZR1 whole entry): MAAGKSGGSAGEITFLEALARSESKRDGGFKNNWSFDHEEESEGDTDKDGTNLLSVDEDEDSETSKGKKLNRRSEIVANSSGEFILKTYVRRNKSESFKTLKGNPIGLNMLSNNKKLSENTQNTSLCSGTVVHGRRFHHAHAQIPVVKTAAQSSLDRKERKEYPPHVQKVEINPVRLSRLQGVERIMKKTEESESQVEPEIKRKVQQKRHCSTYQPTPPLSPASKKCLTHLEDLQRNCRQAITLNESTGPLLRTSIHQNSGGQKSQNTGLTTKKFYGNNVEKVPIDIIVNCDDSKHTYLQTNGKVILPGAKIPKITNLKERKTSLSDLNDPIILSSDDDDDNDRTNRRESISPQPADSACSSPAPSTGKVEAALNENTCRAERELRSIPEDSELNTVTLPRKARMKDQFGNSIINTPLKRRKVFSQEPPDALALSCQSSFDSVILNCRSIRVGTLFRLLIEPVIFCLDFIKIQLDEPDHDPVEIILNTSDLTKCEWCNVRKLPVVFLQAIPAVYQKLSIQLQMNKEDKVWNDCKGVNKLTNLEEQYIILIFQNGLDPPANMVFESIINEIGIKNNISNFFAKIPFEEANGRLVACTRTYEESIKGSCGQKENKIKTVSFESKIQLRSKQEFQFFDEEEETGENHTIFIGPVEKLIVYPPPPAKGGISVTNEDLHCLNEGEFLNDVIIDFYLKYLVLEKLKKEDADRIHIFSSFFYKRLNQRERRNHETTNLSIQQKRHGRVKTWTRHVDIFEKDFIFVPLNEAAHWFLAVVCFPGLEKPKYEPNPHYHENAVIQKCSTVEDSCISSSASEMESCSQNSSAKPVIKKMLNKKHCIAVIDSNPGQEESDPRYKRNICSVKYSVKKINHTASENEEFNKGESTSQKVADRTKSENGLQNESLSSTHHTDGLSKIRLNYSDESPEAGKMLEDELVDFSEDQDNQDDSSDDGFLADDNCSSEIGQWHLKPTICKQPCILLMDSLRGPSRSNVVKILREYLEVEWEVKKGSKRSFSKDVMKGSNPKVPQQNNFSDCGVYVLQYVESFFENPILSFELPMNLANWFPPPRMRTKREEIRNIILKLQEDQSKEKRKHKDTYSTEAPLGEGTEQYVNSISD

[7] = biological target: T2, Sentrin-specific protease 8 (Homo sapiens, UniProt Q96LD8); assay: inhibition of human SENP8 cleavage activity – biochemical, luminescence, SAR follow-up (AID 504501); format: functional
T2 sequence (Q96LD8 whole entry): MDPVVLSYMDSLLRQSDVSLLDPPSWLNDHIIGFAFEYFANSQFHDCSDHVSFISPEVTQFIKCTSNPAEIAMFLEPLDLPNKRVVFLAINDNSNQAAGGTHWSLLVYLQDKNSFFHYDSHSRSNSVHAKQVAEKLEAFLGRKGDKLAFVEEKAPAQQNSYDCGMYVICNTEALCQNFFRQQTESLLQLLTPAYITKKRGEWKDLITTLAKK

[8] = test system: Vero; assay: viability of Vero cells under compound – cytotoxicity control for flavivirus capping enzyme inhibitors (AID 588742); format: functional; conditions: Chlorocebus sabaeus
[9] = biological target: RNA-editing ligase 1, mitochondrial (Trypanosoma brucei brucei, UniProt P86926); assay: inhibition of trypanosome RNA editing ligase – biochemical, fluorescence, Trypanosoma brucei, dose response (AID 1117295); format: functional
[10] = biological target: Serine/threonine-protein phosphatase (Homo sapiens, UniProt Q9BPW0); assay: inhibition of protein phosphatase 5 activity – biochemical, fluorescence, dose response (AID 2395)
[11] = biological target: C-C chemokine receptor type 6 (Homo sapiens, UniProt P51684); assay: antagonism of CCR6 beta-arrestin recruitment – cell-based, luminescent beta-arrestin readout, dose response (AID 504728); format: functional
C-C chemokine receptor type 6, sequence (P51684 whole entry): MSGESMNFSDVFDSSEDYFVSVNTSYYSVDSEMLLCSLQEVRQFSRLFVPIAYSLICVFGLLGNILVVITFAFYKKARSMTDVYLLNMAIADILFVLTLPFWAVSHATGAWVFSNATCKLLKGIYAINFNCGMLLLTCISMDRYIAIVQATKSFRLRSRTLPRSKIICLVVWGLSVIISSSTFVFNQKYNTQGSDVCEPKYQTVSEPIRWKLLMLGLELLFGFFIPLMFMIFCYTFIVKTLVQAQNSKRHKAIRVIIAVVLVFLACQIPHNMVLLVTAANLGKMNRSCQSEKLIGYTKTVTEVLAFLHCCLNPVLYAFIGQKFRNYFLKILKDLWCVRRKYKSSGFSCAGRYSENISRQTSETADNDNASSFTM

RNA-editing ligase 1, mitochondrial, sequence (P86926 whole entry): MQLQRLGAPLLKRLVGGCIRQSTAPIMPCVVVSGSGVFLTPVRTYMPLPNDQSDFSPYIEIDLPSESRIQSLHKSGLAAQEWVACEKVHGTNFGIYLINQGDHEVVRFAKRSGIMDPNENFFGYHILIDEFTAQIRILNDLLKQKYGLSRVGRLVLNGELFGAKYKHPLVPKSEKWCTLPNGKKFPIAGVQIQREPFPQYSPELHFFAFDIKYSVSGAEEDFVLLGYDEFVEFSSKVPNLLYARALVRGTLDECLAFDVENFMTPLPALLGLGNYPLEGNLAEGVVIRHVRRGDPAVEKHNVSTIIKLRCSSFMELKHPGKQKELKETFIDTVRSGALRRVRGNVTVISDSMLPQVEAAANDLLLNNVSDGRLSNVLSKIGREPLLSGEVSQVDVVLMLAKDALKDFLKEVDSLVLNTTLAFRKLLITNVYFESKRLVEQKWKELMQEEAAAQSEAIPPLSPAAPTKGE
Serine/threonine-protein phosphatase, sequence (Q9BPW0 whole entry): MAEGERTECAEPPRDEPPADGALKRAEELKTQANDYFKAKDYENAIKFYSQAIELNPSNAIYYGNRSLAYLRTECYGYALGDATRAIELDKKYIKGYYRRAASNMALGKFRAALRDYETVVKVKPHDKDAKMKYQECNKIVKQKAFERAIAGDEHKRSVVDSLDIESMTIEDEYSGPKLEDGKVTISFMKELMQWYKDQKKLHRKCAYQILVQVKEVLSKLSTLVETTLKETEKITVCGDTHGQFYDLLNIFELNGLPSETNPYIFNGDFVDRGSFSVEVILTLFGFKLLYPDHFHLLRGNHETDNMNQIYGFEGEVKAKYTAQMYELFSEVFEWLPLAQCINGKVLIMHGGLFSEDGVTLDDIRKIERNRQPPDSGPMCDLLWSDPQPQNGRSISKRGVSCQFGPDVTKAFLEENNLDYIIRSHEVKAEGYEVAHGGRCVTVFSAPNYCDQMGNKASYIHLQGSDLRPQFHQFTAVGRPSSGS
Sphingosine 1-phosphate receptor 4, sequence (O95977 whole entry): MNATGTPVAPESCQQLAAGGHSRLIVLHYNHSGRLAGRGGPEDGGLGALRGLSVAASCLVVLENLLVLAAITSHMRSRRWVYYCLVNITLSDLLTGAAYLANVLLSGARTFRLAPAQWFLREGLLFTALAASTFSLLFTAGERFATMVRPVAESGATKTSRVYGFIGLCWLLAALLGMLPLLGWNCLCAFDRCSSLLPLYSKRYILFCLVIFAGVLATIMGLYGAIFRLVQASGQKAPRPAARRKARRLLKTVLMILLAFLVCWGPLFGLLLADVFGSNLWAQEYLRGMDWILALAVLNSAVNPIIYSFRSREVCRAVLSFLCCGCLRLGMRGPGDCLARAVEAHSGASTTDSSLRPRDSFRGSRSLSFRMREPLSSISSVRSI

For `COC(=O)C[C@]1(C(=O)OC)CN(C#N)N(c2ccc(Cl)cc2)C12c1ccccc1-c1ccccc12`, the EC50 [1] was 1.07 µM (active), the EC50 [2] was 3.62 µM (active) and the AC50 [3] was 4.76 µM (active). The IC50 [4] was 0.341 µM (active) and the AC50 [5] was 1.67 µM (active).

In the case of `O=C(Nc1ccc(C#Cc2ccccc2)cc1)C1CC1`, the IC50 [6] is reported as > 99 µM (inactive) and the IC50 [7] is reported as > 99 µM (inactive).

For `CCCCn1c(NC(=O)c2ccco2)c(C(=O)OCC)c2nc3ccccc3nc21`, the CC50 [8] was > 40 µM (active), the IC50 [9] was 21.8 µM (inactive) and the IC50 [10] was 10.3 µM (not active).

In the case of `Cc1ccc(NC2=C/C(=N/S(=O)(=O)c3cccs3)c3ccccc3C2=O)cc1`, the IC50 [11] is reported as > 66.6 µM (inactive).
